Columns and labels:
[1] = test system: fibroblasts (PHF) co-cultured with tumor cells of human gastric adenocarcinoma (23132/87); experiment: Marker expression (IHC) in PHF co-cultured with 23132/87 tumor cells; assay type: cell-based; conditions: co-culture with 23132/87; SP 1 μM; 48 h;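 also: cultures grown in fresh plasma from a healthy human donor, values give the percentage of PHF fibroblasts positive for the marker, each experiment run in six replicates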
Description: (§1) All cultures were maintained 48 hours, following which the same cells were included in paraffin blocks for subsequent analysis of the expression of different markers by immunohistochemistry (see Example 1). The primary antibodies used to perform immunohistochemical assays and their concentration are detailed in Example 2. All experiments were carried out sixfold. Analyzed markers in fibroblast cells (stromal cells) were: TGF-α, TGF-β1, TGF-β2, TGF-β3, SPARC, MMP-3, MMP-7, MMP-9, MMP-11, MMP-13 and MMP-14.

[2] = test system: fibroblasts (PHF) co-cultured with tumor cells of human pancreatic adenocarcinoma (CAPAN-1); experiment: Marker expression (IHC) in PHF co-cultured with CAPAN-1 tumor cells; assay type: cell-based; conditions: co-culture with CAPAN-1; SP 1 μM; 48 h;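 also: cultures grown in fresh plasma from a healthy human donor, run in six replicates, value is percent of fibroblasts positive for each marker, compared with fibroblasts cultured alone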
Description: as §1

[3] = test system: fibroblasts (PHF) co-cultured with tumor cells of human breast carcinoma (MCF-7); experiment: Marker expression (IHC) in PHF co-cultured with MCF-7 tumor cells; assay type: cell-based; conditions: co-culture with MCF-7; SP 1 μM; 48 h;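 also: value is the percentage of fibroblasts positive for each marker, with fibroblasts cultured alone as reference, grown in fresh plasma from a healthy donor, six replicates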
Description: (§2) All cultures were maintained 48 hours, following which the same cells were included in paraffin blocks for subsequent analysis of the expression of different markers by immunohistochemistry (see Example 1). […] All experiments were carried out sixfold. Analyzed markers in fibroblast cells (stromal cells) were: TGF-α, TGF-β1, TGF-β2, TGF-β3, SPARC, MMP-3, MMP-7, MMP-9, MMP-11, MMP-13 and MMP-14.

[4] = test system: fibroblasts (PHF) co-cultured with tumor cells of human cervix carcinoma (KB); experiment: Marker expression (IHC) in PHF co-cultured with KB tumor cells; assay type: cell-based; conditions: co-culture with KB; SP 1 μM; 48 h;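 also: percentage of PHF fibroblasts showing expression of each marker, cultured in fresh blood plasma from a healthy human donor, six replicates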
Description: as §2

[5] = test system: fibroblasts (PHF) co-cultivated with tumor cell carcinoma of urinary bladder (5637); experiment: Marker expression (IHC) in PHF co-cultured with 5637 tumor cells; assay type: cell-based, human; conditions: co-culture with 5637; SP 1 μM; 48 h
Description: as §2

CSCC[C@H](NC(=O)[C@H](CC(C)C)NC(=O)CNC(=O)[C@H](Cc1ccccc1)NC(=O)[C@H](Cc1ccccc1)NC(=O)[C@H](CCC(N)=O)NC(=O)[C@H](CCC(N)=O)NC(=O)[C@@H]1CCCN1C(=O)[C@H](CCCCN)NC(=O)[C@@H]1CCCN1C(=O)[C@@H](N)CCCNC(=N)N)C(N)=O [SP]
PHF cells expressing MMP-3 [1]: 43.4 ± 1.7%
PHF cells expressing MMP-7 [1]: 56.1 ± 2.8%
PHF cells expressing MMP-9 [1]: 52.3 ± 1.4%
PHF cells expressing MMP-11 [1]: 27.4 ± 2.8%
PHF cells expressing MMP-13 [1]: 45 ± 3.5%
PHF cells expressing MMP-14 [1]: 49.2 ± 4.5%
PHF cells expressing SPARC [1]: 47 ± 1.2%
PHF cells expressing TGF-α [1]: 32.4 ± 1.1%
PHF cells expressing TGF-β1 [1]: 33.5 ± 1.1%
PHF cells expressing TGF-β2 [1]: 40.5 ± 1.1%
PHF cells expressing TGF-β3 [1]: 41 ± 1.56%
PHF cells expressing MMP-3 [2]: 44.4 ± 1.6%
PHF cells expressing MMP-7 [2]: 58.2 ± 2.4%
PHF cells expressing MMP-9 [2]: 56.4 ± 1.5%
PHF cells expressing MMP-11 [2]: 25.3 ± 1.5%
PHF cells expressing MMP-13 [2]: 55 ± 3.6%
PHF cells expressing MMP-14 [2]: 47.2 ± 4.7%
PHF cells expressing SPARC [2]: 49 ± 1.4%
PHF cells expressing TGF-α [2]: 42.4 ± 2.1%
PHF cells expressing TGF-β1 [2]: 37.6 ± 1.4%
PHF cells expressing TGF-β2 [2]: 42.4 ± 6.1%
PHF cells expressing TGF-β3 [2]: 43 ± 2.6%
PHF cells expressing MMP-3 [3]: 44.5 ± 1.8%
PHF cells expressing MMP-7 [3]: 57.1 ± 2.7%
PHF cells expressing MMP-9 [3]: 55.3 ± 1.7%
PHF cells expressing MMP-11 [3]: 25.4 ± 2.7%
PHF cells expressing MMP-13 [3]: 46 ± 3.6%
PHF cells expressing MMP-14 [3]: 48.2 ± 3.5%
PHF cells expressing SPARC [3]: 49 ± 1.5%
PHF cells expressing TGF-α [3]: 42.6 ± 1.1%
PHF cells expressing TGF-β1 [3]: 43.2 ± 1%
PHF cells expressing TGF-β2 [3]: 42.6 ± 2.1%
PHF cells expressing TGF-β3 [3]: 46 ± 1.7%
PHF cells expressing MMP-3 [4]: 42.6 ± 1.8%
PHF cells expressing MMP-7 [4]: 57.5 ± 5.8%
PHF cells expressing MMP-9 [4]: 57.3 ± 6.4%
PHF cells expressing MMP-11 [4]: 36.4 ± 6.8%
PHF cells expressing MMP-13 [4]: 45.4 ± 3.7%
PHF cells expressing MMP-14 [4]: 51.6 ± 3.5%
PHF cells expressing SPARC [4]: 46.9 ± 1.6%
PHF cells expressing TGF-α [4]: 33.4 ± 1.1%
PHF cells expressing TGF-β1 [4]: 34.5 ± 1.1%
PHF cells expressing TGF-β2 [4]: 45.6 ± 1.1%
PHF cells expressing TGF-β3 [4]: 44.5 ± 3.1%
PHF cells expressing MMP-3 [5]: 44.5 ± 2.7%
PHF cells expressing MMP-7 [5]: 55.4 ± 3.8%
PHF cells expressing MMP-9 [5]: 53.3 ± 4.4%
PHF cells expressing MMP-11 [5]: 26.5 ± 1.8%
PHF cells expressing MMP-13 [5]: 44.5 ± 2.5%
PHF cells expressing MMP-14 [5]: 47.1 ± 3.5%
PHF cells expressing SPARC [5]: 47.4 ± 2.2%
PHF cells expressing TGF-α [5]: 42.4 ± 1.1%
PHF cells expressing TGF-β1 [5]: 43.6 ± 1.1%
PHF cells expressing TGF-β2 [5]: 44.3 ± 1.1%
PHF cells expressing TGF-β3 [5]: 42.3 ± 1.2%

— US20180071317A1, “USE OF AGENTS THAT ALTER THE PERITUMORAL ENVIRONMENT FOR THE TREATMENT OF CANCER” (SERVICIO ANDALUZ DE SALUD, priority 2011, published 2018)
